From patent publication US20260055117A1, “SUBSTITUTED PYRIDONE GPR84 ANTAGONISTS AND USES THEREOF” (Liminal BioSciences Limited, priority 2022, published 2026)

Target: T1, human GPR84 receptor (Homo sapiens, UniProt Q9NQS5)
T1 construct: host or cells: HEK293, transiently transfected
Experiment: Gαi biosensor BRET assay (GPR84 antagonism vs agonist ZQ-16)
Assay type: cell-based
Conditions: HEK293 cells, 200 nmol/L agonist ZQ-16; for IC50: Gαi biosensor BRET assay; for inhibition at 2 µM: tested at 2 μM (concentration code A); for inhibition at 10 µM: tested at 10 μM (concentration code D)
From the text: Background—The following assays can be used for determination of GPR84 activation in living HEK293 cells. The Gai BRET biosensor (Gagnon et al., 2018; Gales et al., 2006. Nat Struct Mol Biol. 13, 778-86; Saulieres et al., 2012. Nat Chem Biol. 8, 622-30) allows to directly monitor GPR84-mediated activation of Gai. The Gai biosensor consists of a Rluc8-tagged Gai2 subunit, a GFP10-tagged Gy2 subunit, and an untagged GB1. Agonist stimulation and GPR84 activation triggers a physical separation between the RLuc8-Gai donor and the GFP10-Gy2 acceptor, resulting in a decrease in BRET signal whose amplitude is correlated to ligand efficacy (Gales et al., 2006). Moreover, signaling functions of GPCRs are tightly regulated by endocytosis, the targeting of receptors to endosomes and their sorting to lysosomes or recycling to the plasma membrane. The early endosomes (EEs) trafficking assay (Namkung et al., 2016. Nat Commun. 7, 12178) uses Rluc8-tagged GPR84 and Renilla GFP (rGFP) attached to the FYVE domain from human endofin/zinc finger FYVE domain-containing protein 16, which binds phosphatidylinositol 3-phosphate in EEs. Agonist stimulation of GPR84-Rluc8 leads to trafficking of the receptor to EEs, and ensuing increase of the donor concentration relative to the rGFP-FYVE acceptor anchored in the same cellular compartment, and thus results in an increase in BRET signal.
Plasmids—The cDNA clones for human GPR84 receptor, human Gai2, GB1, and Gy2 were obtained from the cDNA Resource Center (www.cdna.org). GFP10 (F64L, S147P, S202F and H231L variant of Aequorea victoria Green Fluorescent Protein) gBlocks gene fragments (Integrated DNA Technologies, IA) and linker were inserted in frame at the N-terminus of human Gy2. Rluc8 (A55T, C124A, S130A, K136R, A143M, M185V, M253L, and S287L variant of the Renilla reniformis luciferase) gBlocks gene fragment was inserted with linkers in frame in between residues 91 and 92 of Gai2 or at the C-terminus of GPR84. The FYVE domain from human endofin (residues Q739 to K806) attached in frame at the C terminus of a humanized Renilla GFP (rGFP), were synthesized as gBlocks gene fragments.
Bioluminescence Resonance Energy Transfer (BRET) Measurement-HEK293 cells were transfected with GPR84-Rluc8 and rGFP-FYVE for the EEs trafficking biosensor or with GPR84, Gai2-Rluc8, GFP10-Gy2, and GB1 for the Ga; biosensor. The following day, transiently transfected cells were seeded in 96-well white clear bottom microplates coated with poly-D-lysine and left in culture for 24 hours. Cells were washed once with Tyrode's buffer (140 mmol/L NaCl, 1 mmol/L CaCl2), 2.7 mmol/L KCl, 0.49 mmol/L MgCl2, 0.37 mmol/L NaH2PO4, 5.6 mmol/L glucose, 12 mmol/L NaHCO3, and 25 mmol/L HEPES, pH 7.5) before performing assays in Tyrode's buffer. Test compounds were incubated with cells for 5 (Gai) or 15 (EEs) minutes at 37° C. before addition of 200 nmol/L of the GPR84 agonist ZQ-16 (2-(Hexylthio)-6-hydroxy-4 (3H)-pyrimidinone) for 5 minutes at room temperature (Gai) or 30 minutes at 37° C. (EEs). The Rluc8 substrate coelenterazine 400A (Prolume, Lakeside, A Z) was added at a final concentration of 5 μmol/L and BRET readings were collected using an Infinite M1000 microplate reader (Tecan, Morrisville, N C). BRET2 readings between Rluc8 and GFP10 or rGFP were collected by sequential integration of the signals detected in the 370 to 450 nm (Rluc8) and 510 to 540 nm (GFP10, rGFP) windows. The BRET signal was calculated as the ratio of light emitted by acceptor (GFP10, rGFP) over the light emitted by donor (Rluc8). The values were corrected to net BRET by subtracting the background BRET signal obtained in cells transfected with Rluc8 constructs alone. Ligand-promoted net BRET values were calculated by subtracting vehicle-induced net BRET from ligand-induced net BRET.

T1 sequence (Q9NQS5 whole entry): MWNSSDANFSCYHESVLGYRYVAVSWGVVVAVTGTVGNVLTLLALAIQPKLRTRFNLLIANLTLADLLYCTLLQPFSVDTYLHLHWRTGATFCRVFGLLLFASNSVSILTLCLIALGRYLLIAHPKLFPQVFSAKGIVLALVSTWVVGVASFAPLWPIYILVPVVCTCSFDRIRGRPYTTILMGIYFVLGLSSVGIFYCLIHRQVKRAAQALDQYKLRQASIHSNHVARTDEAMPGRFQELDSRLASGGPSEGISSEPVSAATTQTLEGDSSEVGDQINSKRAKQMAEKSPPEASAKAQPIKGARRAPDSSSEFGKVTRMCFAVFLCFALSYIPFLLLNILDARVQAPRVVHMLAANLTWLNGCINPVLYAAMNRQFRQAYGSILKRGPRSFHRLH

## Cc1nc(OCC(=O)N(C)C)cc(=O)n1C(C)c1ccc(C#CC2CC2)cc1 (stereo not drawn) [Compound I-89]
  IC50: ≤ 300 nM
  inhibition at 2 µM: > 75%

## Cc1cc(C#CC2CC2)cc(=O)n1[C@H](C)c1ccc(C#CC2CC2)cc1 [Compound I-90]
  inhibition at 10 µM: 50 to 75%

## Cc1cc(OCc2ncccn2)cc(=O)n1[C@H](C)c1ccc(OC(C)C)cc1 [Compound I-129]
  inhibition at 10 µM: < 25%

## CCCCCCOc1ccc([C@@H](C)n2c(C)cc(OCc3ncccn3)cc2=O)cc1 [Compound I-130]
  inhibition at 10 µM: < 25%

## Cc1cc(OCc2ncccn2)cc(=O)n1[C@H](C)c1ccc(/C=C/C2CC2)cc1 [Compound I-149]
  inhibition at 10 µM: < 25%

## Cc1cc(OCc2ncccn2)cc(=O)n1[C@H](C)c1ccc(-c2ccc(C3CC3)cc2)cc1 [Compound I-150]
  inhibition at 10 µM: < 25%

## Cc1cc(OCC(=O)N2CCC3(CC2)CN(C)C3)cc(=O)n1[C@H](C)c1ccc(C#CC2CC2)cc1 [Compound I-203]
  inhibition at 10 µM: 50 to 75%

## Cc1cc(OCC(=O)N(C)C)cc(=O)n1[C@H](C)c1ccc(C#CC2(O)CC2)cc1 [Compound I-210]
  inhibition at 10 µM: > 75%

## Cn1c(-c2ccc(C#CC3CC3)cc2)cc(OCC2COCCO2)nc1=O (stereo not drawn) [Compound I-215]
  inhibition at 10 µM: < 25%

## Cc1nc(OCC(=O)N(C)C)cc(=O)n1[C@H](C)c1ccc(C#CC2CC2)cc1 [Compound I-217]
  IC50: ≤ 300 nM
  inhibition at 2 µM: > 75%

## Cc1nc(OCC(=O)N(C)C)cc(=O)n1[C@@H](C)c1ccc(C#CC2CC2)cc1 [Compound I-218]
  inhibition at 10 µM: < 25%

## Cc1cc(OCC(=O)N(C)C)cc(=O)n1C(C)c1ccccn1 (stereo not drawn) [Compound I-225]
  inhibition at 10 µM: < 25%

## Cc1cc(OCC(=O)N(C)C)cc(=O)n1C(C)c1ccncc1 (stereo not drawn) [Compound I-227]
  inhibition at 10 µM: < 25%

## COc1cc(C(C)n2c(C)cc(OCC(=O)N(C)C)cc2=O)ccn1 (stereo not drawn) [Compound I-230]
  inhibition at 10 µM: < 25%

## Cc1cc(OCC(=O)N(C)C)cc(=O)n1C(C)c1ccnc(O)c1 (stereo not drawn) [Compound I-231]
  inhibition at 10 µM: < 25%

## Cc1cc(OCC(=O)N(C)CC(F)(F)F)cc(=O)n1[C@H](C)c1ccc(C#CC2CC2)cc1 [Compound I-232]
  IC50: ≤ 300 nM
  inhibition at 2 µM: > 75%

## Cc1cc(C#CC2CC2)cc(=O)n1[C@@H](C)c1ccc(C#CC2CC2)cc1 [Compound I-234]
  inhibition at 10 µM: < 25%

## Cc1nc(OCC(=O)N2CCCC2)cc(=O)n1[C@H](C)c1ccc(C#CC2CC2)cc1 [Compound I-235]
  IC50: ≤ 300 nM
  inhibition at 2 µM: > 75%

## Cc1nc(OCC(=O)N2CCCC2)cc(=O)n1[C@@H](C)c1ccc(C#CC2CC2)cc1 [Compound I-236]
  inhibition at 10 µM: 25 to 50%

## Cc1cc(OCC(=O)N(C)CC(F)(F)F)cc(=O)n1[C@@H](C)c1ccc(C#CC2CC2)cc1 [Compound I-237]
  inhibition at 10 µM: < 25%

## COc1cccc([C@H](C)n2c(C)cc(C#CC3CC3)cc2=O)c1 [Compound I-238]
  inhibition at 2 µM: < 25%

## COc1ccc([C@H](C)n2c(C)cc(C#CC3CC3)cc2=O)cc1 [Compound I-239]
  inhibition at 2 µM: < 25%

## Cc1cc(C#CC2CC2)cc(=O)n1[C@H](C)c1ccc(Br)cc1 [Compound I-240]
  inhibition at 10 µM: < 25%

## Cc1cc(OCC(=O)N2CC[C@@H](O)C2)cc(=O)n1[C@H](C)c1ccc(C#CC2CC2)cc1 [Compound I-241]
  IC50: ≤ 300 nM
  inhibition at 2 µM: > 75%

## Cc1cc(OCC(=O)N2CC[C@H](O)C2)cc(=O)n1[C@H](C)c1ccc(C#CC2CC2)cc1 [Compound I-242]
  IC50: ≤ 300 nM
  inhibition at 2 µM: > 75%

## Cc1cc(OCC(=O)N2CC[C@@H](F)C2)cc(=O)n1[C@H](C)c1ccc(C#CC2CC2)cc1 [Compound I-243]
  IC50: ≤ 300 nM
  inhibition at 2 µM: > 75%

## Cc1cc(OCC(=O)N2CC[C@H](F)C2)cc(=O)n1[C@H](C)c1ccc(C#CC2CC2)cc1 [Compound I-244]
  IC50: ≤ 300 nM
  inhibition at 2 µM: > 75%

## Cc1cc(OCC(=O)N2CCC(=O)C2)cc(=O)n1[C@H](C)c1ccc(C#CC2CC2)cc1 [Compound I-245]
  IC50: ≤ 300 nM
  inhibition at 2 µM: > 75%

## Cc1cc(OCC(=O)N2CCC[C@@H]2C(=O)O)cc(=O)n1[C@H](C)c1ccc(C#CC2CC2)cc1 [Compound I-246]
  IC50: 300 to 1000 nM
  inhibition at 10 µM: > 75%

## Cc1cc(OCC(=O)N2CCC[C@H]2CO)cc(=O)n1[C@H](C)c1ccc(C#CC2CC2)cc1 [Compound I-248]
  IC50: ≤ 300 nM
  inhibition at 2 µM: > 75%

## Cc1cc(OCC(=O)N2CC[C@@H](C(=O)O)C2)cc(=O)n1[C@H](C)c1ccc(C#CC2CC2)cc1 [Compound I-250]
  IC50: ≤ 300 nM
  inhibition at 2 µM: > 75%

## Cc1cc(OCC(=O)N2CC[C@H](C(=O)O)C2)cc(=O)n1[C@H](C)c1ccc(C#CC2CC2)cc1 [Compound I-251]
  IC50: ≤ 300 nM
  inhibition at 2 µM: > 75%

## Cc1cc(OCC(=O)N2CC[C@@H](S(C)(=O)=O)C2)cc(=O)n1[C@H](C)c1ccc(C#CC2CC2)cc1 [Compound I-252]
  IC50: ≤ 300 nM
  inhibition at 2 µM: > 75%

## Cc1cc(OCC(=O)N2CC[C@H](S(C)(=O)=O)C2)cc(=O)n1[C@H](C)c1ccc(C#CC2CC2)cc1 [Compound I-253]
  inhibition at 10 µM: > 75%

## Cc1cc(OCC(=O)N2CCC[C@@H]2C(F)(F)F)cc(=O)n1[C@H](C)c1ccc(C#CC2CC2)cc1 [Compound I-254]
  IC50: ≤ 300 nM
  inhibition at 2 µM: > 75%

## Cc1cc(OCC(=O)N2CCC[C@H]2C(F)(F)F)cc(=O)n1[C@H](C)c1ccc(C#CC2CC2)cc1 [Compound I-255]
  IC50: 300 to 1000 nM
  inhibition at 2 µM: > 75%

## Cc1cc(OCC(=O)N2CCC(C)(C)C2)cc(=O)n1[C@H](C)c1ccc(C#CC2CC2)cc1 [Compound I-256]
  inhibition at 2 µM: > 75%

## Cc1cc(OCC(=O)N2CCC(F)(F)C2)cc(=O)n1[C@H](C)c1ccc(C#CC2CC2)cc1 [Compound I-257]
  IC50: ≤ 300 nM
  inhibition at 2 µM: > 75%

## Cc1cc(OCC(=O)N2CCCC2(C)C)cc(=O)n1[C@H](C)c1ccc(C#CC2CC2)cc1 [Compound I-258]
  IC50: ≤ 300 nM
  inhibition at 2 µM: > 75%

## Cc1cc(OCc2nnn[nH]2)cc(=O)n1[C@H](C)c1ccc(C#CC2CC2)cc1 [Compound I-259]
  IC50: ≤ 300 nM
  inhibition at 2 µM: > 75%

## Cc1cc(OCc2nnnn2C)cc(=O)n1[C@H](C)c1ccc(C#CC2CC2)cc1 [Compound I-260]
  IC50: ≤ 300 nM
  inhibition at 2 µM: > 75%

## Cc1cc(OCc2nnn(C)n2)cc(=O)n1[C@H](C)c1ccc(C#CC2CC2)cc1 [Compound I-261]
  IC50: 300 to 1000 nM
  inhibition at 2 µM: > 75%

## Cc1cc(OCC(=O)N(C)C)cc(=O)n1C(C)c1ccc(C#CC2CC2)cc1Cl (stereo not drawn) [Compound I-262]
  inhibition at 10 µM: > 75%

## Cc1cc(OCC(=O)N(C)C)cc(=O)n1[C@H](C)c1ccc(C#CC(=O)O)cc1 [Compound I-264]
  inhibition at 10 µM: < 25%

## Cc1cc(OCC(=O)N(C)C)cc(=O)n1[C@H](C)c1ccc(C(=O)O)cc1 [Compound I-265]
  inhibition at 10 µM: < 25%

## Cc1cc(OCC(=O)N(C)C)cc(=O)n1[C@H](C)c1ccc(-c2nnn[nH]2)cc1 [Compound I-266]
  inhibition at 10 µM: < 25%

## CCN(C)C(=O)COc1cc(C)n([C@H](C)c2ccc(C#CC3CC3)cc2)c(=O)c1 [Compound I-267]
  IC50: ≤ 300 nM
  inhibition at 2 µM: > 75%
